# Assays:
# sugar beet = assay: Postemergent control of plant species; format: in vivo, Beta saccharifera; conditions: Beta vulgaris, post-emergence, 336 h, read-out: percent postemergent control
# In short: (§1)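 Growth reduction versus untreated plants of each species, scored about two weeks after spraying, defines control here. Test emulsions contained compound in acetone diluted 1:1 into water bearing 0.1% surfactant; plants were treated at the 2-4 leaf stage in the greenhouse.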
# barnyardgrass [1] = assay: Postemergent control of plant species; format: in vivo, Echinochloa crusgalli; conditions: Echinochloa crus-galli, post-emergence, 336 h, read-out: percent postemergent control
# In short: as §1
# barnyardgrass [2] = assay: Control of aquatic plant species (paddy water); format: in vivo, Echinochloa crusgalli; conditions: Echinochloa crus-galli, 216 h, nine days, read-out: Percent control; for pest or weed control at 1000 g/ha: 1.0 Kg/Ha
# Experimental: (§2) In testing for such utility, the plant species to be tested were transplanted into 16 oz. containers into about 2 inches of soil when they were in the 1-2 inch stage and then flooded to a depth of about 1 inch. An acetone concentrate of the chemical to be tested was then injected into the paddy water, the volume injected being varied as desired to provide the desired concentration. Percent control was evaluated nine days after application.
# cocklebur = assay: Postemergent control of plant species; format: in vivo, Xanthium spp.; conditions: Xanthium strumarium, post-emergence, 336 h, read-out: percent postemergent control
# In short: as §1
# sorghum = assay: Postemergent control of plant species; format: in vivo, Sorghum vulgare; conditions: Sorghum, post-emergence, 336 h, read-out: percent postemergent control
# In short: as §1
# cotton = assay: Postemergent control of plant species; format: in vivo, Gossypium spp.; conditions: Gossypium hirsutum, post-emergence, 336 h, read-out: percent postemergent control
# In short: as §1
# [3] = test system: nitrification of ammonium nitrogen; assay: Suppression of nitrification of ammonium nitrogen in soil; conditions: 27° C.
# In short: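 Value is % NH4-N remaining after a two-week, 27° C incubation of treated soil held at 1/3 bar tension moisture. Nitrate was measured with an ion-selective electrode after extraction with ammonium sulfate solution and 10 min shaking.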
# rice [4] = assay: Control of aquatic plant species (paddy water); format: in vivo, Oryza sativa; conditions: Oryza sativa, 216 h, nine days, read-out: Percent control; for pest or weed control at 1000 g/ha: 1.0 Kg/Ha
# Experimental: as §2
# corn = assay: Postemergent control of plant species; format: in vivo, Zea mays; conditions: Zea mays, post-emergence, 336 h, read-out: percent postemergent control
# In short: as §1
# soybean = assay: Postemergent control of plant species; format: in vivo, Glycine max.; conditions: Glycine max, post-emergence, 336 h, read-out: percent postemergent control
# In short: as §1
# sprangletop = assay: Control of aquatic plant species (paddy water); format: in vivo, Leptochloa filiformis; conditions: Leptochloa filiformis, 216 h, nine days, read-out: Percent control; for pest or weed control at 1000 g/ha: 1.0 Kg/Ha
# Experimental: as §2
# rape = assay: Postemergent control of plant species; format: in vivo, Brassica napus; conditions: Brassica napus, post-emergence, 336 h, read-out: percent postemergent control
# In short: as §1
# johnson grass = assay: Postemergent control of plant species; format: in vivo, Sorghum halepense; conditions: Sorghum halepense, post-emergence, 336 h, read-out: percent postemergent control
# In short: as §1
# annual morning glory = assay: Postemergent control of plant species; format: in vivo, Ipomoea spp.; conditions: Ipomoea, post-emergence, 336 h, read-out: percent postemergent control
# In short: as §1
# yellow foxtail = assay: Postemergent control of plant species; format: in vivo, Setaria lutescens; conditions: Setaria, post-emergence, 336 h, read-out: percent postemergent control
# In short: as §1
# jimsonweed = assay: Postemergent control of plant species; format: in vivo, Datura stramonium; conditions: Datura stramonium, post-emergence, 336 h, read-out: percent postemergent control
# In short: as §1
# yellow nutsedge [5] = assay: Control of aquatic plant species (paddy water); format: in vivo, Cyperus esculentus; conditions: Cyperus, 216 h, nine days, read-out: Percent control; for pest or weed control at 1000 g/ha: 1.0 Kg/Ha
# Experimental: as §2
# rice [6] = assay: Postemergent control of plant species; format: in vivo, Oryza sativa; conditions: Oryza sativa, post-emergence, 336 h, read-out: percent postemergent control
# In short: as §1
# crabgrass = assay: Postemergent control of plant species; format: in vivo, Digitaria spp.; conditions: Digitaria sanguinalis, post-emergence, 336 h, read-out: percent postemergent control
# In short: as §1
# wheat = assay: Postemergent control of plant species; format: in vivo, Triticum aestivum; conditions: Triticum aestivum, post-emergence, 336 h, read-out: percent postemergent control
# In short: as §1
# velvetleaf = assay: Postemergent control of plant species; format: in vivo, Abutilon theophrasti; conditions: Abutilon theophrasti, post-emergence, 336 h, read-out: percent postemergent control
# In short: as §1
# pigweed = assay: Postemergent control of plant species; format: in vivo, Amaranthus spp.; conditions: Amaranthus retroflexus, post-emergence, 336 h, read-out: percent postemergent control
# In short: as §1
# wild oats = assay: Postemergent control of plant species; format: in vivo, Avena fatua; conditions: Avena fatua, post-emergence, 336 h, read-out: percent postemergent control
# In short: as §1
# yellow nutsedge [7] = assay: Postemergent control of plant species; format: in vivo, Cyperus esculentus; conditions: Cyperus, post-emergence, 336 h, read-out: percent postemergent control
# In short: as §1
compound,measurement,setting,value
Cc1cc(C)n2nc(S(=O)(=O)Nc3cccc(Cl)c3)nc2n1 [Compound 17],plant injury at 500 ppm,sugar beet,10%
same,pest or weed control at 500 ppm,barnyardgrass [1],0%
same,pest or weed control at 4000 g/ha,barnyardgrass [2]; 4.0 Kg/Ha,40%
same,pest or weed control at 500 ppm,cocklebur,10%
same,plant injury at 500 ppm,sorghum,40%
same,plant injury at 500 ppm,cotton,15%
same,% NH4-N Remaining After 2 Weeks Incubation,[3]; 0.01 ppm,0%
same,% NH4-N Remaining After 2 Weeks Incubation,[3]; 0.1 ppm,1%
same,% NH4-N Remaining After 2 Weeks Incubation,[3]; 1 ppm,38%
same,% NH4-N Remaining After 2 Weeks Incubation,[3]; 10 ppm,80%
same,pest or weed control at 4000 g/ha,rice [4]; 4.0 Kg/Ha,97%
same,plant injury at 500 ppm,corn,20%
same,plant injury at 500 ppm,soybean,15%
same,pest or weed control at 4000 g/ha,sprangletop; 4.0 Kg/Ha,0%
same,plant injury at 500 ppm,rape,70%
same,pest or weed control at 500 ppm,johnson grass,60%
same,pest or weed control at 500 ppm,annual morning glory,0%
same,pest or weed control at 500 ppm,yellow foxtail,20%
same,pest or weed control at 500 ppm,jimsonweed,0%
same,pest or weed control at 4000 g/ha,yellow nutsedge [5]; 4.0 Kg/Ha,90%
same,plant injury at 500 ppm,rice [6],0%
same,pest or weed control at 500 ppm,crabgrass,0%
same,plant injury at 500 ppm,wheat,0%
same,pest or weed control at 500 ppm,velvetleaf,70%
same,pest or weed control at 500 ppm,pigweed,50%
same,pest or weed control at 500 ppm,wild oats,0%
same,pest or weed control at 500 ppm,yellow nutsedge [7],0%
"Cc1cc(C)n2nc(S(=O)(=O)Nc3c(C)cccc3C)nc2n1 [Compound 32, 5,7-dimethyl-N-(2,6-dimethylphenyl)-1,2,4-triazolo[1,5-a]pyrimidine-2-sulfonamide]",plant injury at 500 ppm,sugar beet,30%
same,pest or weed control at 500 ppm,barnyardgrass [1],0%
same,pest or weed control at 500 g/ha,barnyardgrass [2]; 0.5 Kg/Ha,97%
same,pest or weed control at 500 ppm,cocklebur,15%
same,plant injury at 500 ppm,sorghum,0%
same,plant injury at 500 ppm,cotton,20%
same,% NH4-N Remaining After 2 Weeks Incubation,[3]; 0.01 ppm,0%
same,% NH4-N Remaining After 2 Weeks Incubation,[3]; 0.1 ppm,33%
same,% NH4-N Remaining After 2 Weeks Incubation,[3]; 1 ppm,82%
same,% NH4-N Remaining After 2 Weeks Incubation,[3]; 10 ppm,100%
same,pest or weed control at 500 g/ha,rice [4]; 0.5 Kg/Ha,93%
same,plant injury at 500 ppm,corn,0%
same,plant injury at 500 ppm,soybean,15%
same,pest or weed control at 500 g/ha,sprangletop; 0.5 Kg/Ha,95%
same,plant injury at 500 ppm,rape,0%
same,pest or weed control at 500 ppm,johnson grass,95%
same,pest or weed control at 500 ppm,annual morning glory,0%
same,pest or weed control at 500 ppm,yellow foxtail,10%
same,pest or weed control at 500 ppm,jimsonweed,60%
same,pest or weed control at 500 g/ha,yellow nutsedge [5]; 0.5 Kg/Ha,95%
same,plant injury at 500 ppm,rice [6],10%
same,pest or weed control at 500 ppm,crabgrass,10%
same,plant injury at 500 ppm,wheat,30%
same,pest or weed control at 500 ppm,velvetleaf,50%
same,pest or weed control at 500 ppm,pigweed,0%
same,pest or weed control at 500 ppm,wild oats,0%
same,pest or weed control at 500 ppm,yellow nutsedge [7],0%
"COC(=O)c1ccccc1NS(=O)(=O)c1nc2nc(C)cc(C)n2n1 [Compound 10, methyl N-(5,7-dimethyl-1,2,4-triazolo[1,5-a]pyrimidine-2-sulfonyl)anthranilate]",plant injury at 500 ppm,sugar beet,60%
same,pest or weed control at 500 ppm,barnyardgrass [1],0%
same,pest or weed control at 1000 g/ha,barnyardgrass [2],90%
same,pest or weed control at 500 ppm,cocklebur,15%
same,plant injury at 500 ppm,sorghum,0%
same,plant injury at 500 ppm,cotton,0%
same,% NH4-N Remaining After 2 Weeks Incubation,[3]; 0.01 ppm,0%
same,% NH4-N Remaining After 2 Weeks Incubation,[3]; 0.1 ppm,0%
same,% NH4-N Remaining After 2 Weeks Incubation,[3]; 1 ppm,27%
same,% NH4-N Remaining After 2 Weeks Incubation,[3]; 10 ppm,70%
same,pest or weed control at 1000 g/ha,rice [4],93%
same,plant injury at 500 ppm,corn,0%
same,plant injury at 500 ppm,soybean,20%
same,pest or weed control at 1000 g/ha,sprangletop,50%
same,plant injury at 500 ppm,rape,10%
same,pest or weed control at 500 ppm,johnson grass,0%
same,pest or weed control at 500 ppm,annual morning glory,0%
same,pest or weed control at 500 ppm,yellow foxtail,0%
same,pest or weed control at 500 ppm,jimsonweed,0%
same,pest or weed control at 1000 g/ha,yellow nutsedge [5],90%
same,pest or weed control at 500 ppm,crabgrass,0%
same,plant injury at 500 ppm,wheat,0%
same,pest or weed control at 500 ppm,velvetleaf,0%
same,pest or weed control at 500 ppm,pigweed,20%
same,pest or weed control at 500 ppm,wild oats,0%
same,pest or weed control at 500 ppm,yellow nutsedge [7],0%
"Cc1cc(C)n2nc(S(=O)(=O)Nc3ccccc3Cl)nc2n1 [Compound 7, 5,7-dimethyl-N-(2-chlorophenyl)-1,2,4-triazolo[1,5-a]pyrimidine-2-sulfonamide]",plant injury at 500 ppm,sugar beet,100%
same,pest or weed control at 500 ppm,barnyardgrass [1],35%
same,pest or weed control at 1000 g/ha,barnyardgrass [2],99%
same,pest or weed control at 500 ppm,cocklebur,100%
same,plant injury at 500 ppm,sorghum,65%
same,% NH4-N Remaining After 2 Weeks Incubation,[3]; 0.06 ppm,17%
same,% NH4-N Remaining After 2 Weeks Incubation,[3]; 0.125 ppm,30%
same,% NH4-N Remaining After 2 Weeks Incubation,[3]; 0.25 ppm,62%
same,% NH4-N Remaining After 2 Weeks Incubation,[3]; 0.5 ppm,73%
same,% NH4-N Remaining After 2 Weeks Incubation,[3]; 1 ppm,80%
same,pest or weed control at 1000 g/ha,rice [4],97%
same,plant injury at 500 ppm,corn,0%
same,plant injury at 500 ppm,soybean,55%
same,pest or weed control at 1000 g/ha,sprangletop,93%
same,plant injury at 500 ppm,rape,90%
same,pest or weed control at 500 ppm,johnson grass,50%
same,pest or weed control at 500 ppm,annual morning glory,90%
same,pest or weed control at 500 ppm,yellow foxtail,25%
same,pest or weed control at 500 ppm,jimsonweed,20%
same,pest or weed control at 1000 g/ha,yellow nutsedge [5],90%
same,plant injury at 500 ppm,rice [6],15%
same,pest or weed control at 500 ppm,crabgrass,0%
same,plant injury at 500 ppm,wheat,0%
same,pest or weed control at 500 ppm,velvetleaf,65%
same,pest or weed control at 500 ppm,pigweed,60%
same,pest or weed control at 500 ppm,wild oats,0%
same,pest or weed control at 500 ppm,yellow nutsedge [7],65%
Cc1ccnc2nc(S(=O)(=O)Nc3c(Cl)cccc3Cl)nn12 [Compound 180],plant injury at 500 ppm,sugar beet,100%
same,pest or weed control at 500 ppm,barnyardgrass [1],10%
same,pest or weed control at 250 g/ha,barnyardgrass [2]; 0.25 Kg/Ha,90%
same,pest or weed control at 1000 g/ha,barnyardgrass [2],97%
same,pest or weed control at 500 ppm,cocklebur,100%
same,plant injury at 500 ppm,sorghum,50%
same,plant injury at 500 ppm,cotton,100%
same,pest or weed control at 250 g/ha,rice [4]; 0.25 Kg/Ha,0%
same,pest or weed control at 1000 g/ha,rice [4],80%
same,plant injury at 500 ppm,corn,0%
same,plant injury at 500 ppm,soybean,100%
same,pest or weed control at 250 g/ha,sprangletop; 0.25 Kg/Ha,0%
same,pest or weed control at 1000 g/ha,sprangletop,97%
same,plant injury at 500 ppm,rape,100%
same,pest or weed control at 500 ppm,johnson grass,20%
same,pest or weed control at 500 ppm,annual morning glory,90%
same,pest or weed control at 500 ppm,yellow foxtail,75%
same,pest or weed control at 500 ppm,jimsonweed,100%
same,pest or weed control at 250 g/ha,yellow nutsedge [5]; 0.25 Kg/Ha,90%
same,pest or weed control at 1000 g/ha,yellow nutsedge [5],97%
same,plant injury at 500 ppm,rice [6],10%
same,pest or weed control at 500 ppm,crabgrass,90%
same,plant injury at 500 ppm,wheat,0%
same,pest or weed control at 500 ppm,velvetleaf,100%
same,pest or weed control at 500 ppm,wild oats,0%
same,pest or weed control at 500 ppm,yellow nutsedge [7],90%
